How the values were obtained:
Conditions in all cases: primary screen
[1] = test system: ENR+CD organoids (ISC to Paneth cell differentiation); experiment: Primary screen: basal (non-stimulated) lysozyme secretion LYZ.NS, 2.5-D 384-well ENR+CD organoid differentiation; format: cell-based, mouse
From the text: (§1) High-throughput screening.

[2] = test system: ENR+CD organoids (ISC to Paneth cell differentiation); experiment: Primary screen: CCh-stimulated lysozyme secretion LYZ.S, 2.5-D 384-well ENR+CD organoid differentiation; format: cell-based, mouse
From the text: as §1

ENR+CD organoids = experiment: Primary screen: ATP (CellTiter-Glo 3D, CTG) cell number/viability, 2.5-D 384-well ENR+CD organoids;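 also: compounds given at plating and again on day 3 over a 6-day differentiation from ENR+CV stem-cell-enriched precursors, ATP measured on day 6, plate median as control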

SMILES	Dose.FC.LYZ.NS ([1]; dose 0.08 uM) [log2 fold change]	Z.LYZ.NS (standard z score) ([1]; dose 0.08 uM)	Dose.FC.LYZ.NS ([1]; dose 0.40 uM) [log2 fold change]	Z.LYZ.NS (standard z score) ([1]; dose 0.40 uM)	Dose.FC.LYZ.NS ([1]; dose 2.00 uM) [log2 fold change]	Z.LYZ.NS (standard z score) ([1]; dose 2.00 uM)	Dose.FC.LYZ.NS ([1]; dose 10.00 uM) [log2 fold change]	Z.LYZ.NS (standard z score) ([1]; dose 10.00 uM)	Dose.FC.LYZ.S ([2]; dose 0.08 uM) [log2 fold change]	Dose.FC.LYZ.S ([2]; dose 0.40 uM) [log2 fold change]	Dose.FC.LYZ.S ([2]; dose 2.00 uM) [log2 fold change]	Dose.FC.LYZ.S ([2]; dose 10.00 uM) [log2 fold change]	Dose.FC.CTG (ENR+CD organoids; dose 0.08 uM) [log2 fold change]	Dose.FC.CTG (ENR+CD organoids; dose 0.40 uM) [log2 fold change]	Dose.FC.CTG (ENR+CD organoids; dose 2.00 uM) [log2 fold change]	Dose.FC.CTG (ENR+CD organoids; dose 10.00 uM) [log2 fold change]	Z.CTG (standard z score) (ENR+CD organoids; dose 0.08 uM)	Z.CTG (standard z score) (ENR+CD organoids; dose 0.40 uM)	Z.CTG (standard z score) (ENR+CD organoids; dose 2.00 uM)	Z.CTG (standard z score) (ENR+CD organoids; dose 10.00 uM)
C[C@@H](O[C@H]1OCCN(Cc2n[nH]c(=O)[nH]2)[C@H]1c1ccc(F)cc1)c1cc(C(F)(F)F)cc(C(F)(F)F)c1 [Aprepitant]	0.097	0.840	0.061	0.532	0.005	0.043	−0.090	−0.780	0.115	0.107	−0.007	−0.119	0.313	0.403	0.145	0.051				
O=C(O)c1cccc(-c2noc(-c3ccccc3F)n2)c1 [Ataluren (PTC124)]	0.029	0.253	0.042	0.362	0.131	1.140	0.009	0.077	0.051	0.034	0.058	0.005	0.267	−0.340	−0.042	0.006	0.639	−0.813	−0.100	0.013
CN(C)C(=O)Nc1cccc(-c2ccc(N(C)C)cc2)c1 [Atglistatin]	0.069	0.604	0.135	1.176	0.070	0.613	−0.016	−0.142	0.028	−0.035	0.026	0.012	0.057	0.004	−0.045	−0.431	0.137	0.009	−0.108	−1.031
CC(C)c1c(C(=O)Nc2ccccc2)c(-c2ccccc2)c(-c2ccc(F)cc2)n1CC[C@@H](O)C[C@@H](O)CC(=O)[O-].CC(C)c1c(C(=O)Nc2ccccc2)c(-c2ccccc2)c(-c2ccc(F)cc2)n1CC[C@@H](O)C[C@@H](O)CC(=O)[O-].[Ca+2] [Atorvastatin Calcium]	−0.009	−0.077	0.007	0.062	−0.247	−2.148	−0.235	−2.045	0.022	−0.062	−0.354	−0.305	−0.129	−0.348	−1.085	−1.583	−0.309	−0.831	−2.591	−3.780
CCN1CCN(c2ccc(Nc3cc(N(C)C(=O)Nc4c(Cl)c(OC)cc(OC)c4Cl)ncn3)cc2)CC1 [BGJ398 (NVP-BGJ398)]	−0.002	−0.017	−0.060	−0.520	−0.052	−0.450	−0.269	−2.345	−0.036	0.002	−0.062	−0.350	−0.054	0.026	−0.185	−1.500	−0.128	0.063	−0.442	−3.583
CC[C@@H]1C(=O)N(C)c2cnc(Nc3ccc(C(=O)NC4CCN(C)CC4)cc3OC)nc2N1C1CCCC1 [BI 2536]	−0.104	−0.907	−0.129	−1.121	−0.134	−1.168	−0.109	−0.953	−0.163	−0.220	−0.224	−0.185	0.029	−0.534	−0.511	−1.028				

Source: patent US20220323406A1, “METHODS AND COMPOSITIONS FOR DIFFERENTIATING STEM CELLS” (Massachusetts Institute of Technology, priority 2019, published 2022)
